From US20060213838A1, “Elution test method and apparatus” (SHIMADZU CORPORATION, priority 2005, published 2006)

How the values were obtained:
[1] = change with time of residual concentration of specific component A in test liquid (HPLC); format: physicochemical; conditions: 50 mM phosphoric acid buffer solution pH6.8, 37° C., initial 0.1 mg/mL
Procedure: The specific component A is an unstable pharmaceutical in an elution test under neutral condition and is sodium rabepranazole. The test liquid used to the elution test is a 50 mM phosphoric acid buffer solution (pH6.8, 37° C.) in order to neutralize the elution condition for the specific component A.

[2] = elution test of the preparation by absorbance measurement method; format: physicochemical; conditions: preparation C containing impurity component B, six specimens
Text: The following describes a method for determining the specific component A alone while eliminating the influence of the impurity component B that hinders determination from the test liquid into which the specific component A and the impurity component B are eluted from the preparation C
The wavelengths to be set are 234 nm (λ1) and 287 nm (λ2) as isosbestic point wavelengths in a system including the specific component A and its decomposed matter in the preparation C. Assuming that the absorbances of the specific component A as A234nm(t) and A287nm(t) and the absorbances of the impurity component B as B234nm(t) and B287nm(t), the absorbances of the synthesis spectrum C234nm(t) and C287nm(t) will be represented as follows. C234nm(t)=A234nm(t)+B234nm(t) (3) C287nm(t)=A287nm(t)+B287nm(t) (4) Considering the spectrum of the impurity component B, the ratio of absorbance of the wavelengths of 234 nm and 287 nm is constant and independent of time (or concentration). This obtains the expression (5). B234nm(t)/B287nm(t)=k (5)
k and k′ are constants. From the absorbance measurement values at two isosbestic point wavelengths of the elution test liquid, the concentration of the specific component A alone is obtained by solving the simultaneous equation of the expression (7) and (8). […]

- time for residual concentration to decrease to half the initial concentration [1]: ≤ 40 min
- residual concentration of the specific component A ([1]; within 40 minutes): 0.05 mg/mL
- elution ratio ([2]; double-wavelength absorbance measurement method (234 nm and 287 nm)): around 100%
- elution ratio ([2]; single-wavelength absorbance measurement method (234 nm)): 140%
SMILES: COCCCOc1ccnc(C[S+]([O-])c2nc3ccccc3[n-]2)c1C.[Na+] (stereo not shown) [specific component A, sodium rabepranazole]
